Data taken from US9115142B2, “Heterocycle-substituted piperazino-dihydrothienopyrimidines” (Boehringer Ingelheim International GmbH, priority 2007, dated 2015).
Structures can show the parent of a compound that is named as a salt.

Molecular target: PDE4B (Homo sapiens, UniProt Q07343)
Test: Scintillation Proximity Assay (SPA) of PDE4B enzymatic activity ([H3]-cAMP cleavage)
Assay type: biochemical
Conditions: test substance 1 μM; one-hour incubation with [H3]-cAMP and PDE4B at 30° C.
Description: The Scintillation Proximity Assay (SPA) (GE Healthcare, No. TRKQ7090) was carried out by using the different affinities of cyclic 3″-5″-adenosinemonophosphate (cAMP, low affinity) and linear 5″-adenosinemonophosphate (AMP, high affinity) for yttrium silicate scintillator beads. The cAMP specific phosphodiesterase (PDE) PDE4B cleaves the 3″-phosphoester bond of tritium-labelled [H3]-cAMP to form [H3]-5″-AMP. This [H3]-AMP accumulates on the scintillator beads because of its higher affinity for them and causes scintillation events (flashes of light) which are measured in a Wallac Microbeta Scintillation Counter.
The experiment starts with a one-hour incubation of [H3]-cAMP with the PDE4B enzyme in assay buffer at 30° C., in each case once with the Example substance to be tested (in a concentration of 1 μM) and once without the Example substance to be tested.
After this incubation, the reaction is stopped by the addition of the beads. The beads have an opportunity to settle in the next 45 minutes, then the measurement is carried out in the Scintillation Counter. If the substance is capable of inhibiting the enzymatic activity of the PDE4B, less [H3]-AMP is produced during the incubation phase and fewer scintillation events can be measured.

Sequence of PDE4B (Q07343 whole entry, species assumed): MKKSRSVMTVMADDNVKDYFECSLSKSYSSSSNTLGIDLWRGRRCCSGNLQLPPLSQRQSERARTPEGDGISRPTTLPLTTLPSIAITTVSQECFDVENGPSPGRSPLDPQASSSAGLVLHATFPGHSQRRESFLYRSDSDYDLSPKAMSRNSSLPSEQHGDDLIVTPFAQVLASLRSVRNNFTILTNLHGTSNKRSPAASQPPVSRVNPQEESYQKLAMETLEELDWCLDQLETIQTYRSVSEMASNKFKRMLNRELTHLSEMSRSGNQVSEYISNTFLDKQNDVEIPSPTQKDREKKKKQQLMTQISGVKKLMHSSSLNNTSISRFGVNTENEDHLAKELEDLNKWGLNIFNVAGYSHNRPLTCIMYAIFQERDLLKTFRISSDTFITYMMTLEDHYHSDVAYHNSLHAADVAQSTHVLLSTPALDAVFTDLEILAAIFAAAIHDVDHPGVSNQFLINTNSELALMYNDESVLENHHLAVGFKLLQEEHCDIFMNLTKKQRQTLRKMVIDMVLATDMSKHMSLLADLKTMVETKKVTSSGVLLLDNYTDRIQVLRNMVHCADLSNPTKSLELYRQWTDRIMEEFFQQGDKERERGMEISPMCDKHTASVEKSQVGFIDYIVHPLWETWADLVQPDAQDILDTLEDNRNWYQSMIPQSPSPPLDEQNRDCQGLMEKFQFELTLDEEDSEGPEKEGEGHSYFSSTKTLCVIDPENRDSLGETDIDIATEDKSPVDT

SMILES | inhibition at 1 µM [%]
[O-][S+]1CCc2nc(N3CCN(c4nccs4)CC3)nc(Nc3cccc(F)c3)c21 (stereo not shown) [Example 1, (3-fluorophenyl)-[5-oxo-2-(4-thiazol-2-yl-piperazin-1-yl)-6,7-dihydro-5H-5λ^4-thieno[3,2-d]pyrimidin-4-yl]-amine] | 94
CC(C)[C@H](CO)Nc1nc(N2CCN(c3nccs3)CC2)nc2c1[S+]([O-])CC2 (stereo partly drawn) [Example 2, (R)-3-methyl-2-[5-oxo-2-(4-thiazol-2-yl-piperazin-1-yl)-6,7-dihydro-5H-5λ^4-thieno[3,2-d]pyrimidin-4-ylamino]-butan-1-ol] | 90
[O-][S+]1CCc2nc(N3CCN(c4nc5ccccc5o4)CC3)nc(Nc3cccc(F)c3)c21 (stereo not shown) [Example 3, [2-(4-benzoxazol-2-yl-piperazin-1-yl)-5-oxo-6,7-dihydro-5H-5λ^4-thieno[3,2-d]pyrimidin-4-yl]-(3-fluorophenyl)-amine] | 95
[O-][S+]1CCc2nc(N3CCN(c4nc5ccccc5o4)CC3)nc(NC3CCOCC3)c21 (stereo not shown) [Example 5, [2-(4-benzoxazol-2-yl-piperazin-1-yl)-5-oxo-6,7-dihydro-5H-5λ^4-thieno[3,2-d]pyrimidin-4-yl]-(tetrahydropyran-4-yl)-amine] | 96
CC(C)[C@H](CO)Nc1nc(N2CCN(c3ccc(Cl)nn3)CC2)nc2c1[S+]([O-])CC2 (stereo partly drawn) [Example 6, (R)-2-{2-[4-(6-chlorpyridazin-3-yl)-piperazin-1-yl]-5-oxo-6,7-dihydro-5H-5λ^4-thieno[3,2-d]pyrimidin-4-ylamino}-3-methylbutan-1-ol] | 93
[O-][S+]1CCc2nc(N3CCN(c4ccc(Cl)nn4)CC3)nc(Nc3cccc(F)c3)c21 (stereo not shown) [Example 7, {2-[4-(6-chlorpyridazin-3-yl)-piperazin-1-yl]-5-oxo-6,7-dihydro-5H-5λ^4-thieno[3,2-d]pyrimidin-4-yl}-(3-fluorophenyl)-amine] | 95
CC(C)[C@H](CO)Nc1nc(N2CCN(c3nc4ccccc4o3)CC2)nc2c1[S+]([O-])CC2 (stereo partly drawn) [Example 10, (R)-2-[2-(4-benzoxazol-2-yl-piperazin-1-yl)-5-oxo-6,7-dihydro-5H-5λ^4-thieno[3,2-d]pyrimidin-4-ylamino]-3-methylbutan-1-ol] | 94
[O-][S+]1CCc2nc(N3CCN(c4ccc(Cl)cn4)CC3)nc(NC3(CO)CC3)c21 (stereo not shown) [Example 13, (1-{2-[4-(5-Chloropyridin-2-yl)-piperazin-1-yl]-5-oxo-6,7-dihydro-5H-5λ^4-thieno[3,2-d]pyrimidin-4-ylamino}-cyclopropyl)-methanol] | 95
[O-][S+]1CCc2nc(N3CCN(c4ccc(Cl)cn4)CC3)nc(NC3CCOCC3)c21 (stereo not shown) [Example 14, {2-[4-(5-chloropyridin-2-yl)-piperazin-1-yl]-5-oxo-6,7-dihydro-5H-5λ^4-thieno[3,2-d]pyrimidin-4-yl}-(tetrahydropyran-4-yl)-amine] | 95
CN(C)c1nnccc1N1CCN(c2nc3c(c(Nc4cccc(F)c4)n2)[S+]([O-])CC3)CC1 (stereo not shown) [Example 15, {2-[4-(3-dimethylaminopyridazin-4-yl)-piperazin-1-yl]-5-oxo-6,7-dihydro-5H-5λ^4-thieno[3,2-d]pyrimidin-4-yl}-(3-fluorophenyl)-amine] | 97

Other lines, results leading:

inhibition at 1 µM [%] | SMILES
95 | [O-][S+]1CCc2nc(N3CCN(c4cc(Cl)nnc4O)CC3)nc(Nc3cccc(F)c3)c21 (stereo not shown) [Example 16, 6-chloro-4-{4-[4-(3-fluorophenylamino)-5-oxo-6,7-dihydro-5H-5λ^4-thieno[3,2-d]pyrimidin-2-yl]-piperazin-1-yl}-pyridazin-3-ol]
97 | CCOCCOc1ccc(N2CCN(c3nc4c(c(Nc5cccc(F)c5)n3)[S+]([O-])CC4)CC2)nn1 (stereo not shown) [Example 17, (2-{4-[6-(2-ethoxyethoxy)-pyridazin-3-yl]-piperazin-1-yl}-5-oxo-6,7-dihydro-5H-5λ^4-thieno[3,2-d]pyrimidin-4-yl)-(3-fluorophenyl)-amine]
96 | [O-][S+]1CCc2nc(N3CCN(c4ccnnc4)CC3)nc(Nc3cccc(F)c3)c21 (stereo not shown) [Example 18, (3-fluorophenyl)-[5-oxo-2-(4-pyridazin-4-yl-piperazin-1-yl) 6,7-dihydro-5H-5λ^4-thieno[3,2-d]pyrimidin-4-yl]-amine]
83 | COc1cccc2c1nc(N1CCN(c3nc4c(c(N[C@@H](CO)C(C)C)n3)[S+]([O-])CC4)CC1)n2C (stereo partly drawn) [Example 23, (R)-2-{2-[4-(4-methoxy-1-methyl-1H-benzimidazol-2-yl)-piperazin-1-yl]-5-oxo-6,7-dihydro-5H-5λ^4-thieno[3,2-d]pyrimidin-4-ylamino}-3-methylbutan-1-ol]
94 | CCN1CCc2ncc(N3CCN(c4nc5c(c(N[C@@H](CO)C(C)C)n4)[S+]([O-])CC5)CC3)nc2CC1 (stereo partly drawn) [Example 24, (R)-2-{2-[4-(7-ethyl-6,7,8,9-tetrahydro-5H-pyrazino[2,3-d]azepin-2-yl)-piperazin-1-yl]-5-oxo-6,7-dihydro-5H-5^4-thieno[3,2-d]pyrimidin-4-ylamino}-3-methylbutan-1-ol]
94 | CC(C)[C@H](CO)Nc1nc(N2CCN(c3ccncn3)CC2)nc2c1[S+]([O-])CC2 (stereo partly drawn) [Example 28, (R)-3-methyl-2-[5-oxo-2-(4-pyrimidin-4-yl-piperazin-1-yl)-6,7-dihydro-5H-5λ^4-thieno[3,2-d]pyrimidin-4-ylamino]-butan-1-ol trifluoroacetate]
94 | CC(C)[C@H](CO)Nc1nc(N2CCN(c3ccnc(O)c3)CC2)nc2c1[S+]([O-])CC2 (stereo partly drawn) [Example 29, 4-{4-[4((R)-1-hydroxymethyl-2-methylpropylamino)-5-oxo-6,7-dihydro-5H-5λ^4-thieno[3,2-d]pyrimidin-2-yl]-piperazin-1-yl}-pyridin-2-ol]
77 | CC(C)[C@H](CO)Nc1nc(N2CCN(c3ccncc3)CC2)nc2c1[S+]([O-])CC2 (stereo partly drawn) [Example 32, (R)-3-methyl-2-[5-oxo-2-(4-pyridin-4-yl-piperazin-1-yl)-6,7-dihydro-5H-5λ^4-thieno[3,2-d]pyrimidin-4-ylamino]-butan-1-ol trifluoroacetate]
94 | CC(C)[C@H](CO)Nc1nc(N2CCN(c3ccnnc3N(C)C)CC2)nc2c1[S+]([O-])CC2 (stereo partly drawn) [Example 36, (R)-2-{2-[4-(3-dimethylaminopyridazin-4-yl)-piperazin-1-yl]-5-oxo-6,7-dihydro-5H-5λ^4-thieno[3,2-d]pyrimidin-4-ylamino}-3-methylbutan-1-ol trifluoroacetate]
90 | CC(C)[C@H](CO)Nc1nc(N2CCN(c3cc(Cl)nnc3O)CC2)nc2c1[S+]([O-])CC2 (stereo partly shown) [Example 37]
96 | CCOCCOc1ccc(N2CCN(c3nc4c(c(N[C@@H](CO)C(C)C)n3)[S+]([O-])CC4)CC2)nn1 (stereo partly drawn) [Example 38, (R)-2-(2-{4-[6-(2-ethoxyethoxy)-pyridazin-3-yl]-piperazin-1-yl}-5-oxo-6,7-dihydro-5H-5λ^4-thieno[3,2-d]pyrimidin-4-ylamino)-3-methylbutan-1-ol trifluoroacetate]
92 | CC(C)[C@H](CO)Nc1nc(N2CCN(c3ccnnc3)CC2)nc2c1[S+]([O-])CC2 (stereo partly drawn) [Example 39, (R)-3-methyl-2-[5-oxo-2-(4-pyridazin-4-yl-piperazin-1-yl)-6,7-dihydro-5H-5λ^4-thieno[3,2-d]pyrimidin-4-ylamino]-butan-1-ol trifluoroacetate]
